The source of these data is publication PMC6151825, “Identification of Novel Bisbenzimidazole Derivatives as Anticancer Vacuolar (H^+)-ATPase Inhibitors” (Molecules : A Journal of Synthetic Chemistry and Natural …, 2017).

Data set [1] has as its system MCF10A cells. The experiment in a line: MTS cell viability assay, MCF10A normal breast epithelial cells. The data set is classed as cell-based. To be noted: Homo sapiens, MCF-10A, normal breast epithelial cell line, 48 h exposure, read-out: IC50 ± SD, MCF10A. The source says:
(§1) Our research group is extensively involved in studying the role of vacuolar (H^+)-ATPase in breast as well as ovarian cancer cell lines. We examined the antiproliferative activity of the novel bisbenzimidazole derivatives (2a–e) in selected human breast cancer cell lines, MDA-MB-231 (ATCC, HTB-26), MDA-MB-468 (ATCC, HTB-132), MCF-7 (ATCC, HTB-22), and the normal breast epithelial cell line, MCF10A. We also used the cisplatin-sensitive A2780, PA-1 (ATCC, CRL 1572), and the cisplatin-resistant Cis-A2780 ovarian cancer cell lines. A potent V-ATPase inhibitor, Bafilomycin A1 (Baf A1), was used as the positive control. We employed the CellTiter 96 AQueous One solution cell proliferation assay (MTS; Promega) to measure the in vitro cell viability of the cells.
(§2) We studied the antiproliferative activity of an initial hit (compound V), and bisbenzimidazole analogs 2a–e in the selected human breast cancer cell lines MDA-MB-231 (ATCC, HTB-26), MDA-MB-468 (ATCC, HTB-132), MCF-7 (ATCC, HTB-22) and the normal breast epithelial cell line, MCF10A, and the ovarian cancer cell lines, A2780, Cis-A2780, and PA-1 (ATCC, CRL 1572). Human breast cancer cell lines and the human ovarian cancer cell line (PA-1) were purchased from ATCC (American Type Culture Collection, Manassas, VA, USA). The cisplatin-sensitive human ovarian carcinoma cell line, A2780, was obtained from Sigma-Aldrich. The cisplatin-resistant human ovarian cell line, Cis-A2780, was produced in our laboratory, as described in the literature. MDA-MB-231, MDA-MB-468, MCF7, and PA-1 were cultured in the MEM medium (Gibco—Life Technologies, Carlsbad, CA, USA). For the MCF-7 cell line, a final concentration of 0.01 mg/mL human recombinant insulin was added to the media. The normal breast epithelial cell line, MCF-10A, was cultured in complete MEBM (Lonza/Clonetics, Walkersville, MD, USA), as recommended by ATCC. A2780, Cis-A2780 cell lines were cultured in RPMI 1640 medium (Invitrogen, Carlsbad, CA, USA). All media were supplemented with 10% (v/v) heat-inactivated fetal bovine serum (Biowest LLC, Riverside, MO, USA), 100 U/mL penicillin G and 100 U/mL streptomycin (Sigma Aldrich, St. Louis, MO, USA). Cultures were maintained at 37 °C in a humidified atmosphere containing 5% CO2 and were passaged by trypsinization after reaching 80–90% confluence.
(§3) CellTiter 96 AQueous One Solution cell proliferation assay (MTS) was used to measure the in vitro cell viability of cells, and the MTS purchased from Promega (Madison, WI, USA). Cells (5 × 10^3) were seeded into each well of 96-well plates and incubated overnight. Dimethyl Sulfoxide (DMSO) stock solutions of the compounds (V, 2a–e) were diluted in corresponding media and exposed to different concentrations for 48 h. All three independent experiments were performed in quadruplicates. Untreated cells were used as a negative control and data were presented as the mean ± standard deviation (S.D.). The absorbances at 492 nm were measured using a Microplate Reader (Synergy HT, Biotek Instruments, Winooski, VT, USA). The compound concentration that inhibited cell growth by 50% of the untreated control (IC50) was calculated from the dose response curves constructed by plotting percentages of cell viability versus drug concentrations using nonlinear regression analysis by GraphPad Prism Software 7 (GraphPad Software, San Diego, CA, USA).
Background: Tetrazolium assays rely on reduction of a dye to a coloured formazan, in cell work by metabolically active cells.

For data set [2], the system named is V-ATPase. The experiment in a line: Proton pump activity, acridine orange fluorescence quenching in MDA-MB-231 cells. Type of data set: cell-based, human. To be noted: 20 min incubation, relative to untreated control. The source says: Since our hit compound (V) has been identified by the literature known V-ATPases, we hypothesized that these newly synthesized bisbenzimidazole derivatives (2a–e) will work as proton pump inhibitors (PPIs). To neutralize the acidic microenvironment, PPIs have been used to target the V-ATPase pumps present on the cell membrane. […] Therefore, we selected efficacious anticancer agents for the proton pump activity. We performed the standard proton pump activity using the acridine orange (AO) fluorescence quenching method. We selected two highly efficacious compounds (2d and 2e) and our initial hit (V) for proton pump activity. Baf A1 is a known V-ATPase inhibitor and is used as a positive control. The proton pump activity of cells was measured as a decrease in the fluorescence intensity per min. The activity of cells in the presence of Baf A1 and the potent compounds (V, 2d, and 2e) was calculated as a percentage of the untreated control. The values represented are mean values of duplicate measurements (Figure 10).
The proton pump activity was assessed by using the AO fluorescence quenching method. Bafilomycin A1 (Baf A1), AO, and nigericin were purchased from Sigma-Aldrich. Hank’s Balanced Salt Solution (HBSS) was purchased from Gibco-Life Technologies (Carlsbad, CA, USA). Human breast cancer MDA-MB-231 (ATCC, HTB-26) cells were washed twice with Hank’s Balanced Salt Solution (HBSS). The cells were re-suspended at a density of 5 × 10^6 cells per mL in the same buffer and placed on ice. H^+ uptake was initiated by the addition of MDA-MB-231 cells (10 μL; […]) to pre-warmed HBSS (2.4 mL) containing AO (6 μL; 30 μM) and placed in a cuvette. AO fluorescence was measured at an excitation wavelength of 495 nm and an emission wavelength of 540 nm using the LS-50B Luminescence Spectrometer (Perkin Elmer, Software: FL WinLab, Version 4.00.03). Nigericin (6 μL; 6 μM) was added to collapse the pH gradient and unquench the AO fluorescence (See Supplementary Figure S1: 1a and 1b). […] A decrease in the fluorescence intensities per min of Baf A1 and the potent compounds (V, 2d, and 2e) was calculated and is expressed as a percentage of the control (mean ± SD of two independent experiments) (Figure 10).
Figure 10 Effect of V-ATPase inhibitors on proton pump activity. Cells (MDA-MB-231) were subjected to acridine orange (AO) fluorescence quenching assay in the presence and absence of Baf A1 (1 μM) and potent compounds (V, 2d, and 2e; 10 μM). Fluorescence intensity at an excitation of 495 nm and an emission of 540 nm was quantified. Decrease in fluorescence intensity per min was calculated as percentage relative to control (mean ± SD; n = 2).

In data set [3] the test system is Cis-A2780 cells. As to the kind of experiment: MTS cell viability assay, Cis-A2780. Type of data set: cell-based. To be noted: Homo sapiens, cisplatin-resistant ovarian cancer cell line, 48 h exposure, read-out: IC50 ± SD, Cis-A2780.
Text: as §1, §2, §3

Data set [4] concerns MDA-MB-231 cells. As to the kind of experiment: MTS cell viability assay, MDA-MB-231. The data set is classed as cell-based. The following applies: Homo sapiens, breast cancer cell line, 48 h exposure, read-out: IC50 ± SD, MDA-MB-231.
Text: as §1, §2, §3

Data set [5] deals with MCF7 cells. The experiment in a line: MTS cell viability assay, MCF7. The following applies: Homo sapiens, breast cancer cell line, 48 h exposure, read-out: IC50 ± SD, MCF7. Type of data set: cell-based.
Text: as §1, §2, §3

In data set [6] the test system is A2780 cells. The experiment in a line: MTS cell viability assay, A2780. The following applies: Homo sapiens, cisplatin-sensitive ovarian cancer cell line, 48 h exposure, read-out: IC50 ± SD, A2780. The data set is classed as cell-based.
Text: as §1, §2, §3

Data set [7] relates to MDA-MB-468 cells. As to the kind of experiment: MTS cell viability assay, MDA-MB-468. The data set is classed as cell-based, human. The following applies: for IC50: Homo sapiens, MDA-MB-468, triple-negative breast cancer cell line, 48 h exposure, MTS, read-out: IC50 ± SD, MDA-MB-468.
Text: as §1, §2, §3

The subject of data set [8] is PA-1 cells. The experiment in a line: MTS cell viability assay, PA-1. To be noted: Homo sapiens, cisplatin-sensitive ovarian cancer cell line, 48 h exposure, read-out: IC50 ± SD, PA-1. The data set is classed as cell-based.
Text: as §1, §2, §3

SMILES strings stand for the structures.

As to `CO/C1=C\C(C)=C\[C@@H](C)[C@@H](O)[C@@H](C)C/C(C)=C/C=C/[C@H](OC)[C@@H]([C@@H](C)[C@@H](O)[C@H](C)[C@@]2(O)C[C@@H](O)[C@H](C)[C@@H](C(C)C)O2)OC1=O` [Baf A1, Bafilomycin A1, reference compound], the IC50 – broadly, the point on the concentration scale where inhibition reaches its midpoint – in data set [1] came to 36 ± 40 nM; in data set [3] it was 8 ± 10 nM; in data set [4], 26 ± 20 nM. In addition, the “inhibition of the H^+-ATPase activity” value in data set [2] (1 μM) was 25%.

In the case of `CN1CCC(Oc2ccc(-c3nc4ccc(-c5nc6ccc(N7CCN(C)CC7)cc6[nH]5)cc4[nH]3)cc2)CC1` [Compound 2a, 6-(4-Methylpiperazin-1-yl)-2'-(4-((1-methylpiperidin-4-yl)oxy)phenyl)-1H,3'H-2,5'-bibenzo[d]imidazole], the melting point (as a rule, the temperature, or range, at which the solid turns liquid) fell in the range of 165 to 166 °C. Also, the IC50 in data set [1] stood at 13400 ± 370 nM. Further, the IC50 in [5] turned out to be 49300 ± 2760 nM. The half-maximal inhibitory concentration (IC50) in [6] is 26500 ± 1440 nM. The IC50 in [7] turned out to be 13400 ± 330 nM. In data set [3], the IC50 was found to be 25200 ± 320 nM. For the same compound, the IC50 in data set [4] worked out at 17600 ± 190 nM.

Consider `CN(C)CCCOc1ccc(-c2nc3ccc(-c4nc5ccc(N6CCN(C)CC6)cc5[nH]4)cc3[nH]2)cc1` [Compound 2b, N,N-Dimethyl-3-(4-(6-(4-methylpiperazin-1-yl)-1H,3'H-[2,5'-bibenzo[d]imidazol]-2'-yl)phenoxy)propan-1-amine], for which the melting point fell in the range of 171 to 172 °C. Besides, the IC50 in data set [1] turned out to be 2950 ± 150 nM. The IC50 in data set [5] worked out at 13500 ± 2140 nM. In addition, in data set [6], the IC50 came to 11800 ± 10 nM. The IC50 in data set [8] turned out to be 5830 ± 70 nM. Also, in data set [7], the IC50 is 5830 ± 230 nM. Besides, in [3], the IC50 worked out at 12340 ± 20 nM. The IC50 in [4] is 4770 ± 430 nM.

In turn, `CN(C)CCOc1ccc(-c2nc3ccc(-c4nc5ccc(N6CCN(C)CC6)cc5[nH]4)cc3[nH]2)cc1` [Compound 2c, N,N-Dimethyl-2-(4-(6-(4-methylpiperazin-1-yl)-1H,3'H-[2,5'-bibenzo[d]imidazol]-2'-yl)phenoxy)ethanamine] displayed a melting point of 197 to 198 °C. For the same compound, in data set [1], the IC50 was 810 ± 100 nM. Further, the IC50 in data set [6] is 12900 ± 420 nM. In addition, in [8], the IC50 was 7780 ± 810 nM. Also, in data set [7], the IC50 was found to be 1170 ± 360 nM. In [3], the IC50 turned out to be 10700 ± 220 nM. Also, the IC50 in data set [4] turned out to be 750 ± 300 nM.

Regarding `COCCOc1ccc(-c2nc3ccc(-c4nc5ccc(N6CCN(C)CC6)cc5[nH]4)cc3[nH]2)cc1` [Compound 2d, 2'-(4-(2-Methoxyethoxy)phenyl)-6-(4-methylpiperazin-1-yl)-1H,3'H-2,5'-bibenzo[d]imidazole], the melting point fell in the range of 208 to 209 °C. Also, the IC50 in [1] was determined as 1550 ± 40 nM. Further, in data set [5], the IC50 turned out to be 22000 ± 3900 nM. Further, the IC50 in data set [6] is 1970 ± 190 nM. In addition, the IC50 in data set [8] was determined as 3090 ± 30 nM. Besides, the “inhibition of the H^+-ATPase activity” value in data set [2] (10 μM) turned out to be 14%. For the same compound, the IC50 in data set [7] was 560 ± 50 nM. Moreover, the IC50 in data set [3] was found to be 3030 ± 180 nM. In addition, the IC50 in [4] came out at 2440 ± 330 nM.

Consider `CN1CCN(c2ccc3nc(-c4ccc5nc(-c6ccc(OCCC(C)(C)C)cc6)[nH]c5c4)[nH]c3c2)CC1` [Compound 2e, 2'-(4-(3,3-Dimethylbutoxy)phenyl)-6-(4-methylpiperazin-1-yl)-1H,3'H-2,5'-bibenzo[d]imidazole], for which the melting point was 247 to 248 °C. Moreover, in data set [1], the IC50 turned out to be 1620 ± 140 nM. Besides, in data set [5], the IC50 was found to be 2020 ± 120 nM. Moreover, in [6], the IC50 worked out at 2770 ± 50 nM. Also, the IC50 in data set [8] was 2870 ± 150 nM. In data set [2] (10 μM), the “inhibition of the H^+-ATPase activity” value came to 42%. Besides, the IC50 in data set [7] was 40 ± 20 nM. The “times less toxic, MCF10A versus MDA-MB-468” value in data set [7] (ratio of IC50 in normal MCF10A cells to IC50 in MDA-MB-468 cells) is on record as ~40 times. For the same compound, the IC50 in data set [3] is 1340 ± 140 nM. In data set [4], the IC50 stood at 1580 ± 50 nM.

On to `CCOc1ccc(-c2nc3cc(-c4nc5cc(N6CCN(C)CC6)ccc5[nH]4)ccc3[nH]2)cc1` [Compound V], for which the IC50 in data set [1] was 1140 ± 130 nM; in data set [5], 9330 ± 690 nM; in data set [6] it was 3870 ± 90 nM; in [8], 1700 ± 210 nM; in data set [7], 720 ± 80 nM; in [3], 3950 ± 330 nM. Moreover, the half-inhibitory concentration (IC50) in data set [4] is 1020 ± 80 nM. In addition, the “inhibition of the H^+-ATPase activity” value in data set [2] (10 μM) came to 30%.
